Data taken from US20240390408A1, “METHOD OF TREATING HEPATITIS C VIRUS IN PATIENTS” (Altesa BioSciences, Inc., priority 2023, published 2024).
Like-named read-outs stand apart in the source and are kept apart here. One block for each molecule: values may come before it.

Assay: Tissue concentrations of Formula I and its metabolites in Göttingen pigs after a single oral or intravenous dose (LC-MS/MS)
Assay type: in vivo
Settings: for Exposure in the lung and spleen, fold lower than liver and kidneys: after PO dosing with Formula I; for concentration at 2 h / concentration at 3 h / concentration at 12 h / concentration at 24 h: both sexes, Göttingen, pig (minipig)
Protocol: Tissue samples were collected at 3, 12, and 24 hours post-dose (hpd) for the oral dose and 2 and 12 hpd for the intravenous dose, snap-frozen in liquid nitrogen, and stored at −60 to −90° C. until shipment on dry ice for analysis by LC-MS/MS.
Animals were weighed the day prior to dosing to determine the dosing volume.
The compound of Formula I was dissolved in a PEG 400/DI water (60%/40% v/v) vehicle for oral dosing. For IV dosing the compound of Formula I was dissolved in a PEG 400/Cremophor RH 40/Saline (40%/10%/50% v/v) vehicle and passed through a sterile filter. […] Animals were euthanized by euthanasia solution administration under sedation, if necessary (e.g., acepromazine and or/Telazol®), followed by a Testing Facility SOP approved method to ensure death (e.g., exsanguination). Tissues were collected from two animals per sex per timepoint. Tissue samples, including the brain, heart, kidney, liver, lung, spleen, pancreas, bone marrow, duodenum, jejunum, and colon, were collected in duplicate (approximately 50±20 mg each) and placed into two separate reinforced homogenization tubes per organ (one tissue sample per tube). The exact weight (in milligrams) of each sample was recorded. Tissues samples were flash frozen in liquid nitrogen and stored at −60 to −90° C. until shipment on dry ice for analysis by LC-MS/MS.
Mobile phase A consisted of 50 mM ammonium bicarbonate buffer in HPLC grade water pH 9.8 and mobile phase B consisted of pure acetonitrile. […] Mass spectrometry analysis was performed on a QTrap 7500 Mass Spectrometer (Sciex, Framingham, MA, USA) using negative mode electrospray ionization (ESI) in multiple reaction monitoring (MRM) mode. Data analysis was performed using SCIEX OS Software (Sciex, Framingham, MA, USA).
Tissue samples were collected at 3, 12, and 24 hours post-dose for the oral dose and 2 and 12 hour post-dose for the intravenous dose.

[1] = kidney, single intravenous bolus of Formula I 25 mg/kg, 12 hpd, read-out: Tissue concentration, kidney
[2] = kidney, single oral dose of Formula I 125 mg/kg, 3 hpd, read-out: Tissue concentration, kidney
[3] = kidney, single oral dose of Formula I 125 mg/kg, 12 hpd, read-out: Tissue concentration, kidney
[4] = kidney, single oral dose of Formula I 125 mg/kg, 24 hpd, read-out: Tissue concentration, kidney
[5] = liver, single intravenous bolus of Formula I 25 mg/kg, 2 hpd, read-out: Tissue concentration, liver
[6] = liver, single intravenous bolus of Formula I 25 mg/kg, 12 hpd, read-out: Tissue concentration, liver
[7] = liver, single oral dose of Formula I 125 mg/kg, 12 hpd, read-out: Tissue concentration in Göttingen pig liver (Table 7)
[8] = liver, single oral dose of Formula I 125 mg/kg, 12 hpd, read-out: Tissue concentration, liver
[9] = liver, single oral dose of Formula I 125 mg/kg, 24 hpd, read-out: Tissue concentration in Göttingen pig liver (Table 7)
[10] = liver, single oral dose of Formula I 125 mg/kg, 24 hpd, read-out: Tissue concentration, liver
[11] = lung, single intravenous bolus of Formula I 25 mg/kg, 2 hpd, read-out: Tissue concentration, lung
[12] = lung, single intravenous bolus of Formula I 25 mg/kg, 12 hpd, read-out: Tissue concentration, lung
[13] = lung, single oral dose of Formula I 125 mg/kg, 3 hpd, read-out: Tissue concentration, lung
[14] = lung, single oral dose of Formula I 125 mg/kg, 12 hpd, read-out: Tissue concentration, lung
[15] = spleen, single intravenous bolus of Formula I 25 mg/kg, 2 hpd, read-out: Tissue concentration, spleen
[16] = spleen, single intravenous bolus of Formula I 25 mg/kg, 12 hpd, read-out: Tissue concentration, spleen
[17] = spleen, single oral dose of Formula I 125 mg/kg, 3 hpd, read-out: Tissue concentration, spleen
[18] = brain, single intravenous bolus of Formula I 25 mg/kg, 2 hpd
[19] = brain, single intravenous bolus of Formula I 25 mg/kg, 12 hpd
[20] = brain, single oral dose of Formula I 125 mg/kg, 3 hpd
[21] = brain, single oral dose of Formula I 125 mg/kg, 12 hpd
[22] = brain, single oral dose of Formula I 125 mg/kg, 24 hpd
[23] = heart, single intravenous bolus of Formula I 25 mg/kg, 12 hpd
[24] = heart, single oral dose of Formula I 125 mg/kg, 3 hpd
[25] = heart, single oral dose of Formula I 125 mg/kg, 24 hpd
[26] = kidney, single intravenous bolus of Formula I 25 mg/kg, 2 hpd
[27] = kidney, single oral dose of Formula I 125 mg/kg, 3 hpd
[28] = liver, single oral dose of Formula I 125 mg/kg, 3 hpd
[29] = liver, single oral dose of Formula I 125 mg/kg, 24 hpd
[30] = spleen, single oral dose of Formula I 125 mg/kg, 3 hpd

- Exposure in the lung and spleen, fold lower than liver and kidneys: about 10 fold
- concentration at 2 h (brain, single intravenous bolus of Formula I 25 mg/kg, 2 hpd, read-out: Tissue concentration, brain): 4.9 ± 9.8 ng/g
- concentration at 3 h (brain, single oral dose of Formula I 125 mg/kg, 3 hpd, read-out: Tissue concentration, brain): 27 ± 23.4 ng/g
- concentration at 2 h (heart, single intravenous bolus of Formula I 25 mg/kg, 2 hpd, read-out: Tissue concentration, heart): 292 ± 139 ng/g
- concentration at 12 h (heart, single intravenous bolus of Formula I 25 mg/kg, 12 hpd, read-out: Tissue concentration, heart): 7.85 ± 9.5 ng/g
- concentration at 3 h (heart, single oral dose of Formula I 125 mg/kg, 3 hpd, read-out: Tissue concentration, heart): 780 ± 375 ng/g
- concentration at 12 h (heart, single oral dose of Formula I 125 mg/kg, 12 hpd, read-out: Tissue concentration, heart): 3.33 ± 6.65 ng/g
- concentration at 2 h (kidney, single intravenous bolus of Formula I 25 mg/kg, 2 hpd, read-out: Tissue concentration, kidney): 6920 ± 3290 ng/g
- concentration at 12 h [1]: 39.3 ± 32.1 ng/g
- concentration at 3 h [2]: 10300 ± 2300 ng/g
- concentration at 12 h [3]: 180 ± 172 ng/g
- concentration at 24 h [4]: 30 ± 12.8 ng/g
- concentration at 2 h [5]: 694 ± 385 ng/g
- concentration at 12 h [6]: 17.9 ± 16.4 ng/g
- concentration at 3 h (liver, single oral dose of Formula I 125 mg/kg, 3 hpd, read-out: Tissue concentration in Göttingen pig liver (Table 7)): 29200 ± 12200 nM
- concentration at 3 h (liver, single oral dose of Formula I 125 mg/kg, 3 hpd, read-out: Tissue concentration, liver): 12400 ± 5150 ng/g
- concentration at 12 h [7]: 475 ± 727 nM
- concentration at 12 h [8]: 202 ± 309 ng/g
- concentration at 24 h [9]: 107 ± 60.6 nM
- concentration at 24 h [10]: 45.6 ± 25.8 ng/g
- concentration at 2 h [11]: 786 ± 134 ng/g
- concentration at 12 h [12]: 31.8 ± 5.52 ng/g
- concentration at 3 h [13]: 1630 ± 667 ng/g
- concentration at 12 h [14]: 16.5 ± 12.8 ng/g
- concentration at 24 h (lung, single oral dose of Formula I 125 mg/kg, 24 hpd, read-out: Tissue concentration, lung): 2.25 ± 4.51 ng/g
- concentration at 2 h [15]: 530 ± 284 ng/g
- concentration at 12 h [16]: 24.8 ± 7.34 ng/g
- concentration at 3 h [17]: 1390 ± 301 ng/g
- concentration at 12 h (spleen, single oral dose of Formula I 125 mg/kg, 12 hpd, read-out: Tissue concentration, spleen): 11.9 ± 9.24 ng/g
- concentration at 24 h (spleen, single oral dose of Formula I 125 mg/kg, 24 hpd, read-out: Tissue concentration, spleen): 2.27 ± 4.53 ng/g
- Tissue concentration, brain [18]: 4.90 ± 9.80 ng/g
- Tissue concentration, brain [19]: not observable and BQL
- Tissue concentration, brain [20]: 27.0 ± 23.4 ng/g
- Tissue concentration, brain [21]: BQL
- Tissue concentration, brain [22]: BQL
- Tissue concentration, heart [23]: 7.85 ± 9.50 ng/g
- Tissue concentration, heart [24]: 780 ± 375 ng/g
- Tissue concentration, heart [25]: BQL
- Tissue concentration, kidney [26]: 6920 ± 3290 ng/g
- Tissue concentration, kidney (kidney, single intravenous bolus of Formula I 25 mg/kg, 12 hpd): 39.3 ± 32.1 ng/g
- Tissue concentration, kidney [27]: 10300 ± 2300 ng/g
- Tissue concentration, liver [28]: 12400 ± 5150 ng/g
- Tissue concentration, liver [29]: 45.6 ± 25.8 ng/g
- Tissue concentration, lung (lung, single oral dose of Formula I 125 mg/kg, 3 hpd): 1630 ± 667 ng/g
- Tissue concentration, spleen [30]: 1390 ± 301 ng/g
Structure (SMILES): C[C@H](NP(=O)(O)OC[C@H]1O[C@@H](n2ccc(=O)[nH]c2=S)C(C)(O)C1O)C(=O)O (stereo in doubt) [Formula II]

- Exposure in the lung and spleen, fold lower than liver and kidneys: about 10 fold
- concentration at 24 h (125 mg/kg, liver and kidney, 24 hpd after oral dosing with Formula I, read-out: Concentration measurable in the liver and kidney): ~500 nM
- concentration at 12 h [1]: 276 ± 78.1 ng/g
- concentration at 3 h [2]: 14100 ± 5050 ng/g
- concentration at 12 h [3]: 824 ± 432 ng/g
- concentration at 24 h [4]: 85.5 ± 18.1 ng/g
- concentration at 2 h [5]: 13100 ± 3070 ng/g
- concentration at 12 h [6]: 62.7 ± 77.7 ng/g
- concentration at 12 h [7]: 1640 ± 924 nM
- concentration at 12 h [8]: 582 ± 328 ng/g
- concentration at 24 h [9]: 537 ± 229 nM
- concentration at 24 h [10]: 190 ± 81 ng/g
- concentration at 2 h [11]: 2040 ± 883 ng/g
- concentration at 12 h [12]: 357 ± 207 ng/g
- concentration at 3 h [13]: 303 ± 94.4 ng/g
- concentration at 12 h [14]: 55.2 ± 64.6 ng/g
- concentration at 2 h [15]: 240 ± 28.3 ng/g
- concentration at 12 h [16]: 58.9 ± 14.7 ng/g
- concentration at 3 h [17]: 118 ± 10.8 ng/g
- Tissue concentration, brain [18]: BQL
- Tissue concentration, brain [19]: BQL
- Tissue concentration, brain [20]: BQL
- Tissue concentration, brain [21]: BQL
- Tissue concentration, brain [22]: BQL
- Tissue concentration, heart (heart, single intravenous bolus of Formula I 25 mg/kg, 2 hpd): 89.9 ± 65.5 ng/g
- Tissue concentration, heart [23]: BQL
- Tissue concentration, heart [24]: 34.0 ± 39.9 ng/g
- Tissue concentration, heart (heart, single oral dose of Formula I 125 mg/kg, 12 hpd): BQL
- Tissue concentration, heart [25]: BQL
- Tissue concentration, kidney [26]: above the limit of quantitation and AQL
- Tissue concentration, kidney [27]: 14100 ± 5050^ ng/g
- Tissue concentration, kidney (kidney, single oral dose of Formula I 125 mg/kg, 24 hpd): 85.5 ± 18.1 ng/g
- Tissue concentration, liver (liver, single intravenous bolus of Formula I 25 mg/kg, 2 hpd): 13100 ± 3070 ng/g
- Tissue concentration in Göttingen pig liver (Table 7) [28]: AQL
- Tissue concentration, liver [28]: above the limit of quantitation and AQL
- Tissue concentration, liver [29]: 190 ± 81.0 ng/g
- Tissue concentration, lung (lung, single intravenous bolus of Formula I 25 mg/kg, 12 hpd): 357 ± 207 ng/g
- Tissue concentration, lung (lung, single oral dose of Formula I 125 mg/kg, 24 hpd): BQL
- Tissue concentration, spleen (spleen, single intravenous bolus of Formula I 25 mg/kg, 12 hpd): 58.9 ± 14.7 ng/g
- Tissue concentration, spleen [30]: 118 ± 10.8 ng/g
- Tissue concentration, spleen (spleen, single oral dose of Formula I 125 mg/kg, 12 hpd): BQL
- Tissue concentration, spleen (spleen, single oral dose of Formula I 125 mg/kg, 24 hpd): BQL
Structure (SMILES): CC1(O)[C@@H](O)[C@@H](COP(=O)(O)O)O[C@H]1n1ccc(=O)[nH]c1=S (stereo partly drawn) [Formula III]
